Experiments:
morningglory = assay: Test A preemergence; assay type: in vivo, Ipomoea spp.; conditions: Ipomoea, pre-emergence, 240 h, 0 to 100 scale (0 no effect, 100 complete control), read-out: Plant response rating, Morningglory; for pest or weed control at 125 g/ha: 125 g ai/ha; for pest or weed control at 500 g/ha: 500 g ai/ha, approx. 10 d
How it was run: (§1)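 For preemergence, seeds were sown in a loam soil-sand blend and given a directed soil spray of test chemical in a non-phytotoxic solvent mixture with surfactant. For postemergence, plants in pots of the same blend were sprayed with the same formulation at the one- to two-leaf stage, 2 to 10 cm tall.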

crabgrass, large = assay: Test A postemergence; assay type: in vivo, Digitaria sanguinalis; conditions: Digitaria sanguinalis, post-emergence, 240 h, 0 to 100 scale (0 no effect, 100 complete control), approx. 10 d, read-out: Plant response rating, Crabgrass, Large; for pest or weed control at 125 g/ha: 125 g ai/ha; for pest or weed control at 500 g/ha: 500 g ai/ha
How it was run: as §1

johnsongrass = assay: Test C preemergence; assay type: in vivo, Sorghum halepense; conditions: for Plant response rating (scale of 0 to 100 where 0 is no effect and 100 is complete control): Johnsongrass, preemergence; for Johnsongrass plant response rating (0 to 100): Preemergence, visual rating after 13 to 15 d
Excerpt: (§2) Seeds of plant species selected from blackgrass (Alopecurus myosuroides), ryegrass, Italian (Italian ryegrass, Lolium multiflorum), wheat (winter wheat, Triticum aestivum), galium (catchweed bedstraw, Galium aparine), corn (Zea mays), crabgrass, large (large crabgrass, Digitaria sanguinalis), foxtail, giant, (giant foxtail, Setaria faberii), johnsongrass (Sorghum halepense), lambsquarters (Chenopodium album), morningglory (Ipomoea coccinea), nutsedge, yellow (yellow nutsedge, Cyperus esculentus), pigweed (Amaranthus retroflexus), ragweed (common ragweed, Ambrosia elatior), soybean (Glycine max), barnyardgrass (Echinochloa crus-galli), oilseed rape (Brassica napus), waterhemp (common waterhemp, Amaranthus rudis), and velvetleaf (Abutilon theophrasti) were planted into a blend of loam soil and sand and treated preemergence with test chemicals formulated in a non-phytotoxic solvent mixture which included a surfactant. At the same time, plants selected from these crop and weed species and also chickweed (common chickweed, Stellaria media), oat, wild (wild oat, Avena fatua), and kochia (Kochia scoparia), were planted in pots containing Sunshine Redi-Earth® planting medium comprising spaghnum peat moss, vermiculite, starter nutrients and dolomitic limestone and treated with postemergence applications of test chemicals formulated in the same manner. Plants ranged in height from 2 to 18 cm (1- to 4-leaf stage) for postemergence treatments. […] A dash (-) response means no test result.

velvetleaf = assay: Test C preemergence; assay type: in vivo, Abutilon theophrasti; conditions: for Velvetleaf plant response rating (0 to 100): Preemergence, visual rating after 13 to 15 d; for Plant response rating (scale of 0 to 100 where 0 is no effect and 100 is complete control): Velvetleaf, preemergence, 250 g ai/ha
Excerpt: as §2

pigweed = assay: Test C preemergence; assay type: in vivo, Amaranthus retroflexus; conditions: for Plant response rating (scale of 0 to 100 where 0 is no effect and 100 is complete control): Pigweed, preemergence; for Pigweed plant response rating (0 to 100): Preemergence, visual rating after 13 to 15 d
Excerpt: as §2

waterhemp = assay: Test C preemergence; assay type: in vivo, Amaranthus rudis; conditions: for Waterhemp plant response rating (0 to 100): Preemergence, visual rating after 13 to 15 d
Excerpt: as §2

Structure (SMILES) | pest or weed control at 125 g/ha (morningglory) | pest or weed control at 500 g/ha (morningglory) | pest or weed control at 125 g/ha (crabgrass, large) | pest or weed control at 500 g/ha (crabgrass, large) | Plant response rating (scale of 0 to 100 where 0 is no effect and 100 is complete control) (johnsongrass; 125 g ai/ha) | Plant response rating (scale of 0 to 100 where 0 is no effect and 100 is complete control) (johnsongrass; 250 g ai/ha) | Johnsongrass plant response rating (0 to 100) (johnsongrass; 31 g ai/ha) | Johnsongrass plant response rating (0 to 100) (johnsongrass; 62 g ai/ha) | Velvetleaf plant response rating (0 to 100) (velvetleaf; 31 g ai/ha) | Velvetleaf plant response rating (0 to 100) (velvetleaf; 62 g ai/ha) | Plant response rating (scale of 0 to 100 where 0 is no effect and 100 is complete control) (velvetleaf) | Plant response rating (scale of 0 to 100 where 0 is no effect and 100 is complete control) (pigweed; 125 g ai/ha) | Plant response rating (scale of 0 to 100 where 0 is no effect and 100 is complete control) (pigweed; 250 g ai/ha) | Pigweed plant response rating (0 to 100) (pigweed; 31 g ai/ha) | Pigweed plant response rating (0 to 100) (pigweed; 62 g ai/ha) | Waterhemp plant response rating (0 to 100) (waterhemp; 31 g ai/ha) | Waterhemp plant response rating (0 to 100) (waterhemp; 62 g ai/ha) | Plant response rating (scale of 0 to 100 where 0 is no effect and 100 is complete control) (waterhemp; Waterhemp, preemergence, 250 g ai/ha)
Cn1nc(-c2ccc(F)cc2)nc1Oc1cccc(C(F)(F)F)c1 [Compound 5, 3-(4-fluorophenyl)-1-methyl-5-[3-(trifluoromethyl)phenoxy]-1H-1,2,4-triazole] | 0% | 0% | 30% | 90% |  |  |  |  |  |  |  |  |  |  |  |  |  | 
CCCc1nc(-c2ccc(F)cc2)nn1Cc1ccnc(C(F)(F)F)c1 [Compound 6, 4-[[3-(4-fluorophenyl)-5-propyl-1H-1,2,4-triazol-1-yl]methyl]-2-(trifluoromethyl)pyridine] | 50% | 100% | 90% | 90% | 85 | 100 | 60 | 75 | 20 | 75 | 100 | 100 | 100 | 100 | 100 |  |  | 
COc1nc(-c2ccc(F)cc2)nn1Cc1ccnc(C(F)(F)F)c1 [Compound 9, 4-[[3-(4-fluorophenyl)-5-methoxy-1H-1,2,4-triazol-1-yl]methyl]-2-(trifluoromethyl)pyridine] | 10% | 90% | 90% | 100% | 65 | 80 | 5 | 20 | 20 | 25 | 60 | 100 | 98 | 100 | 100 | 100 | 100 | 100
Cn1nc(-c2ccc(F)cc2)nc1C(O)c1ccnc(C(F)(F)F)c1 (stereo not drawn) [Compound 14, α-[3-(4-fluorophenyl)-1-methyl-1H-1,2,4-triazol-5-yl]-2-(trifluoromethyl)-4-pyridinemethanol] | 0% | 0% | 20% | 30% |  |  |  |  |  |  |  |  |  |  |  |  |  | 
CCn1nc(-c2ccc(F)cc2)nc1C(O)c1ccnc(C(F)(F)F)c1 (stereo not drawn) [Compound 15, α-[1-Ethyl-3-(4-fluorophenyl)-1H-1,2,4-triazol-5-yl]-2-(trifluoromethyl)-4-pyridinemethanol] | 0% | 0% | 0% | 10% |  |  |  |  |  |  |  |  |  |  |  |  |  | 

From patent publication US10681909B2, “Herbicidal triazoles” (FMC Corporation, priority 2014, dated 2020)
